In the Kinase Knowledgebase extract (Sharma et al. 2016):

Key:
PIK3CA (human) [1] = target: PIK3CA (human) (UniProt P42336); experiment: Assessment of PIK3CA Kinase Binding Activity
PIK3CG (human) = PIK3CG (human) (UniProt P48736); experiment: Assessment of PIK3CG Kinase Binding Activity
PIK3CD (Human) = PIK3CD (Human) (UniProt O00329); experiment: Assessment of PIK3CD Kinase Binding Activity
PIK3CB (Human) = PIK3CB (Human) (UniProt P42338); experiment: Assessment of PIK3CB Kinase Binding Activity
Chain of PIK3CB (Human) (P42338 whole entry, looked up): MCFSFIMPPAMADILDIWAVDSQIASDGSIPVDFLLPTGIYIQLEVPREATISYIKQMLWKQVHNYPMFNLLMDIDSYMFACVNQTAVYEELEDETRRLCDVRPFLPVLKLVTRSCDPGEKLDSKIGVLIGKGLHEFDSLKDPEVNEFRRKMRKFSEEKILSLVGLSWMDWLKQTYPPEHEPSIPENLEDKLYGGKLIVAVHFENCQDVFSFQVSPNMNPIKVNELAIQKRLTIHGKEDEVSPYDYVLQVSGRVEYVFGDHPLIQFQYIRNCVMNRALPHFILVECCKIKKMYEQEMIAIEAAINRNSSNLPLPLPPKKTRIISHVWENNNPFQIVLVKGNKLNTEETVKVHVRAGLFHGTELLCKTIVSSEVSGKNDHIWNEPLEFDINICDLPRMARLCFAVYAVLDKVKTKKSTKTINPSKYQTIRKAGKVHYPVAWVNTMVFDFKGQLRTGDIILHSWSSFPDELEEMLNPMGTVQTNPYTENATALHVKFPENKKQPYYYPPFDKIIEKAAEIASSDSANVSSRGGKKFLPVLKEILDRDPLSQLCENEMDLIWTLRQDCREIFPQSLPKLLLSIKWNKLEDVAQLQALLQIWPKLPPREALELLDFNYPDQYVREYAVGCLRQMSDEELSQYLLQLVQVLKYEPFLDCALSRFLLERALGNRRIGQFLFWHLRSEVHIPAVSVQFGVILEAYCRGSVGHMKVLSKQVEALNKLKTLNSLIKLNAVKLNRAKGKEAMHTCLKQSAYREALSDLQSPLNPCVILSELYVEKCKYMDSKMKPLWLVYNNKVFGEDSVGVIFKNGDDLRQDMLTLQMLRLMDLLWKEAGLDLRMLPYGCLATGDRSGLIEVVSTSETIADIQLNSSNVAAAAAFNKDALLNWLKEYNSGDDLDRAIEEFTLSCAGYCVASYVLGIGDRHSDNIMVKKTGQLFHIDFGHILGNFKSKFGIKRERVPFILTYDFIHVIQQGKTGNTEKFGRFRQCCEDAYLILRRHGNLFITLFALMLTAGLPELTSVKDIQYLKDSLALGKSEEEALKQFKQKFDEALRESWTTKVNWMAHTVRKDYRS

PIK3CA (human) [2] = target: PIK3CA (human) (UniProt P42336); experiment: Inhibition of A2780 Cell Proliferation
PIK3CA (human) [3] = target: PIK3CA (human) (UniProt P42336); experiment: Inhibition of PIK3CA Kinase Activity

Chain of PIK3CD (Human) (O00329 whole entry, looked up): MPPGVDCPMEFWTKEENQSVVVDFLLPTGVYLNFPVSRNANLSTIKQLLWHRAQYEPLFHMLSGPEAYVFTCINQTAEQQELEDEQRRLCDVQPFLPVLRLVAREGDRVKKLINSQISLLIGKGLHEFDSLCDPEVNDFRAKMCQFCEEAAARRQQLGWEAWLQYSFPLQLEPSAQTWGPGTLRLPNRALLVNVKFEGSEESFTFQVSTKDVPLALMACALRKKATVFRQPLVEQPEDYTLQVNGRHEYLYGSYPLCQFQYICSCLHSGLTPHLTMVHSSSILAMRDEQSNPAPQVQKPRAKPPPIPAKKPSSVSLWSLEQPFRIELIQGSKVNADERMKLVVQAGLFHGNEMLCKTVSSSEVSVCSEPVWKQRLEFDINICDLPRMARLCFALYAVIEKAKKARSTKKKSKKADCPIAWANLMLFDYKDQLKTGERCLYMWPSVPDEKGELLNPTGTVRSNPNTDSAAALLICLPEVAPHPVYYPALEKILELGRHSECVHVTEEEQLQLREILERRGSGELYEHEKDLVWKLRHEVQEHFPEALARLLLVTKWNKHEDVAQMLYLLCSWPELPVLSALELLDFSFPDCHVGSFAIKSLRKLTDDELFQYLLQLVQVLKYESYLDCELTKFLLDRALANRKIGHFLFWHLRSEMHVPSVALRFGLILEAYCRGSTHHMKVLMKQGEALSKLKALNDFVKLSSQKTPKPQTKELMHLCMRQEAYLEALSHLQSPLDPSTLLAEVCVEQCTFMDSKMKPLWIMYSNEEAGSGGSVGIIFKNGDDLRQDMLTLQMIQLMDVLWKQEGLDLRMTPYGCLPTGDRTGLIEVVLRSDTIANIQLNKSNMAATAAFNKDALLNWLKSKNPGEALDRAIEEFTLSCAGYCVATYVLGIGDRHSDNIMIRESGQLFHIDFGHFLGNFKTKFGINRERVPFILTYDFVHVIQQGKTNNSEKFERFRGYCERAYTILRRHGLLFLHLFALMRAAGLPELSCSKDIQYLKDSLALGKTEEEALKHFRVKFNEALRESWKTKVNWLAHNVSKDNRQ
Chain of PIK3CG (human) (P48736 whole entry, looked up): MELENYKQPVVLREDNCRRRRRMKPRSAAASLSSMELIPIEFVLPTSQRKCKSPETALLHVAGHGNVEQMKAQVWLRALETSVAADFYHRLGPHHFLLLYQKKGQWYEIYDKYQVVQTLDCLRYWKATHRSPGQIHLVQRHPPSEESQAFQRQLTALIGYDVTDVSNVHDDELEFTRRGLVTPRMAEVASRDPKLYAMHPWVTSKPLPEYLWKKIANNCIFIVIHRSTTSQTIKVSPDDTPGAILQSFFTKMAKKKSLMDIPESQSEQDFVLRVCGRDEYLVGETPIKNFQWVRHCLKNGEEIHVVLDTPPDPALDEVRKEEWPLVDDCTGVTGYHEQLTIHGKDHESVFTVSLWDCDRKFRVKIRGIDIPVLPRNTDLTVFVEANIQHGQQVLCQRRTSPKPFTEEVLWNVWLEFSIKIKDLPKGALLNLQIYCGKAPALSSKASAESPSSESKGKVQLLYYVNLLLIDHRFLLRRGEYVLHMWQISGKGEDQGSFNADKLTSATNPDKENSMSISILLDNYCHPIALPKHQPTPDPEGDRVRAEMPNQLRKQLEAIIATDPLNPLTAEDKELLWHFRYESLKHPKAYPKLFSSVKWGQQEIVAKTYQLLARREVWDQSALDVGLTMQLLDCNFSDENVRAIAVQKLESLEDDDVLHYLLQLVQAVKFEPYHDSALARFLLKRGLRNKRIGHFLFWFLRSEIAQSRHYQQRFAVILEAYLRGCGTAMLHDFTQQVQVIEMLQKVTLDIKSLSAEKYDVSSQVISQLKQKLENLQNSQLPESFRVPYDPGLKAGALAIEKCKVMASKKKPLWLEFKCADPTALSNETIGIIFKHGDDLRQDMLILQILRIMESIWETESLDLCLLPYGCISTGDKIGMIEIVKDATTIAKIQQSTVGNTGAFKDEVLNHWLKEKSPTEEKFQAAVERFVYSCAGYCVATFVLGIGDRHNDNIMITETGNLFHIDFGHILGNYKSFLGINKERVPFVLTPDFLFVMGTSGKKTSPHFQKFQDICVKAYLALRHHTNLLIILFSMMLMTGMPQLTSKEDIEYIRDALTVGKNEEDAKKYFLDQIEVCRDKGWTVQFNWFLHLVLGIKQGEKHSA
Chain of PIK3CA (human) (P42336 whole entry, looked up): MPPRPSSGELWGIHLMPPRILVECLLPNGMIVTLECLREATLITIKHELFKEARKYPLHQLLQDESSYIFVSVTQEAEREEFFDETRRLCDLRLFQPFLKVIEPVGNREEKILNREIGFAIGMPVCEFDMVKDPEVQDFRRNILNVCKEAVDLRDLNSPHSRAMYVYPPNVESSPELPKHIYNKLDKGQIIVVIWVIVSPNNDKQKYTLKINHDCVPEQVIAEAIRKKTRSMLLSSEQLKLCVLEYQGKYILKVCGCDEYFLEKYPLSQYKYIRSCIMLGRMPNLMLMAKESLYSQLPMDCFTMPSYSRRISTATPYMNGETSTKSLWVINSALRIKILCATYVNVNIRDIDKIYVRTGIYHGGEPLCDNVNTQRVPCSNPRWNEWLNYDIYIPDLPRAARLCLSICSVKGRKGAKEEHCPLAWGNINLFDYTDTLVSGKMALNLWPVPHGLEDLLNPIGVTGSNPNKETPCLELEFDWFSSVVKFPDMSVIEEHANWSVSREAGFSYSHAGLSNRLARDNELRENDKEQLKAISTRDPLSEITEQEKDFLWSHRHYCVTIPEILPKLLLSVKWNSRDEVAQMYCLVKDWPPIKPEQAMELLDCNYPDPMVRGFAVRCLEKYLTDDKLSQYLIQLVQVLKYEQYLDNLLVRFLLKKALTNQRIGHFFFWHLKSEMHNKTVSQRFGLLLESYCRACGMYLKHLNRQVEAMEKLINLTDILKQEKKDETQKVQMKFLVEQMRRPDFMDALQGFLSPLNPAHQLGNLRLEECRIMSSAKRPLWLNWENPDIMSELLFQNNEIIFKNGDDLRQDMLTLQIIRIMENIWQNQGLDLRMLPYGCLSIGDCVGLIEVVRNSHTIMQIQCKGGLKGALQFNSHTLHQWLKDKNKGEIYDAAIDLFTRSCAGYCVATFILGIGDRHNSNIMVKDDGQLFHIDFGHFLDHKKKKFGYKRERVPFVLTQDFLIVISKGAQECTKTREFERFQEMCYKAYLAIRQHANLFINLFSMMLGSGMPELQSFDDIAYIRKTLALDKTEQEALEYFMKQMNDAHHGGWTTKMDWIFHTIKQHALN

Row | Ki (PIK3CA (human) [1]) | Ki (PIK3CG (human)) | Ki (PIK3CD (Human)) | Ki (PIK3CB (Human)) | EC50 (PIK3CA (human) [2]) | IC50 (PIK3CA (human) [3]) | SMILES
1 | < 1000 nM | < 1000 nM | < 1000 nM | < 1000 nM |  |  | Nc1ncc(-c2ccc3nc(NC(=O)NCCn4nnc(C5CC5)n4)cn3c2)cc1C(F)(F)F
2 | < 1000 nM | < 1000 nM | < 1000 nM | < 1000 nM |  |  | CCn1nnc(CCNC(=O)Nc2cn3cc(-c4cnc(N)c(C(F)(F)F)c4)ccc3n2)n1
3 | < 1000 nM | < 1000 nM | < 1000 nM | < 1000 nM |  |  | CCc1cnc(CCNC(=O)Nc2cn3cc(-c4cnc(N)c(C(F)(F)F)c4)ccc3n2)o1
4 |  |  |  |  | < 10000 nM | < 1000 nM | CC(=O)Nc1cn2cc(-c3cnc(N)c(C(F)(F)F)c3)cc(F)c2n1
5 |  |  |  |  | < 1000 nM | < 1000 nM | CC(=O)Nc1cn2cc(-c3cnc(N)c(Oc4cccc(F)c4)n3)ccc2n1
6 |  |  |  |  | < 1000 nM | < 1000 nM | CC(=O)Nc1cn2cc(-c3cnc(N)c(C=NNc4ccccc4)c3)ccc2n1
7 |  |  |  |  | < 1000 nM | < 1000 nM | Nc1ncc(-c2ccc3nc(NC(=O)CCCN4CCCCC4)cn3n2)cc1C(F)(F)F
8 |  |  |  |  | < 25000 nM | < 1000 nM | CC(=O)NC1CCN(C(=O)Nc2cn3cc(-c4cnc(N)c(C(F)(F)F)c4)ccc3n2)C1 (stereo not given)
9 |  |  |  |  | < 1000 nM | < 1000 nM | CC(=O)Nc1cn2cc(-c3cnc(N)c(Oc4ccccc4)n3)ccc2n1
10 |  |  |  |  | < 1000 nM | < 1000 nM | CN(C)CCCC(=O)Nc1cn2nc(-c3cnc(N)c(C(F)(F)F)c3)ccc2n1
11 |  |  |  |  | < 10000 nM | < 1000 nM | COc1cc(-c2ccc3nc(NC(C)=O)c(Br)n3c2)cnc1N
12 |  |  |  |  | < 25000 nM | < 1000 nM | CC(=O)Nc1nc2ccc(-c3cnc(N)nc3C(F)(F)F)cc2s1
13 |  |  |  |  | < 10000 nM | < 1000 nM | Nc1ncc(-c2ccc3nc(NC(=O)CCCN4CCCCC4)cn3c2)cc1C(F)(F)F
14 |  |  |  |  | < 1000 nM | < 1000 nM | COCCCOc1nc(-c2ccc3nc(NC(C)=O)cn3c2)cnc1N
15 |  |  |  |  | < 25000 nM | < 1000 nM | C/C=C\c1c(NC(C)=O)nc2ccc(-c3cnc(N)c(C(F)(F)F)c3)cn12
16 |  |  |  |  | < 10000 nM | < 1000 nM | CC(=O)Nc1cn2cc(-c3cnc(N)c(OCC4CCN(C)CC4)n3)ccc2n1
17 |  |  |  |  | < 1000 nM | < 1000 nM | CC(=O)Nc1cn2nc(-c3cnc(N)c(-c4ccn(C)n4)c3)ccc2n1
18 |  |  |  |  | < 1000 nM | < 1000 nM | Nc1ncc(-c2ccc3nc(NC(=O)Cc4cccc5ccccc45)cn3c2)cc1C(F)(F)F
19 |  |  |  |  | < 10000 nM | < 1000 nM | CC(C)(C)OC(=O)N1CCCCC1CCC(=O)Nc1cn2nc(-c3cnc(N)c(C(F)(F)F)c3)ccc2n1 (stereo not given)

The next lines start with the compound.

Row | SMILES | Ki (PIK3CA (human) [1]) | Ki (PIK3CG (human)) | Ki (PIK3CD (Human)) | Ki (PIK3CB (Human)) | EC50 (PIK3CA (human) [2]) | IC50 (PIK3CA (human) [3])
20 | CC(C)n1nnc(CCNC(=O)Nc2cn3cc(-c4cnc(N)c(C(F)(F)F)c4)ccc3n2)n1 | < 1000 nM | < 1000 nM | < 1000 nM | < 1000 nM |  | 
21 | CC(=O)Nc1cn2cc(-c3cnc(N)c(-c4ccccc4OC(F)(F)F)c3)ccc2n1 |  |  |  |  | < 10000 nM | < 1000 nM
22 | Nc1ncc(-c2ccc3nc(NC(=O)c4cccnc4)cn3c2)cc1C(F)(F)F |  |  |  |  | < 10000 nM | < 1000 nM
23 | CC(=O)Nc1cn2nc(-c3cnc(N)c(C(=O)O)c3)ccc2n1 |  |  |  |  | < 25000 nM | < 1000 nM
24 | Nc1ncc(-c2ccc3nc(NC(=O)C4CCN4)cn3n2)cc1C(F)(F)F (stereo not given) |  |  |  |  | < 10000 nM | < 1000 nM
25 | Nc1ncc(-c2ccc3nc(NC(=O)[C@H]4CCCN4)cn3n2)cc1C(F)(F)F |  |  |  |  | < 25000 nM | < 1000 nM
26 | CCN(CC)Cc1cc(-c2ccc3nc(NC(C)=O)cn3c2)cnc1N |  |  |  |  | < 25000 nM | < 1000 nM
27 | CC(C)(C)OC(=O)NCC(=O)Nc1cn2nc(-c3cnc(N)c(C(F)(F)F)c3)ccc2n1 |  |  |  |  | < 10000 nM | < 1000 nM
28 | COCCOc1nc(-c2ccc3nc(NC(=O)C4CCN4C(C)=O)cn3c2)cnc1N (stereo not given) |  |  |  |  | < 10000 nM | < 1000 nM
29 | CC(C)(C)OC(=O)N1CC[C@@H](OCC(=O)Nc2cn3nc(-c4cnc(N)c(C(F)(F)F)c4)ccc3n2)C1 |  |  |  |  | < 1000 nM | < 1000 nM
30 | CCC(=O)Nc1cn2cc(-c3cnc(N)c(OC)n3)ccc2n1 |  |  |  |  | < 10000 nM | < 1000 nM
31 | COc1cc(-c2ccc3nc(NC(C)=O)cn3c2C)cnc1N |  |  |  |  | < 25000 nM | < 1000 nM
32 | CC(=O)Nc1nc2ccc(-c3cnc(N)c(C(F)(F)F)c3)cn2c1C#Cc1ccc(C)cc1 |  |  |  |  | < 10000 nM | < 1000 nM
33 | COc1ccc(C#Cc2c(NC(C)=O)nc3ccc(-c4cnc(N)c(C(F)(F)F)c4)cn23)cc1 |  |  |  |  | < 10000 nM | < 1000 nM
34 | CC(=O)Nc1cn2cc(-c3cnc(N)c(-c4cccc(OC(F)(F)F)c4)c3)ccc2n1 |  |  |  |  | < 1000 nM | < 1000 nM
35 | COCCOc1nc(-c2ccc3nc(NC(=O)C4CCN4)cn3c2)cnc1N (stereo not given) |  |  |  |  | < 25000 nM | < 1000 nM
36 | CC(=O)Nc1cn2cc(-c3cnc(N)c(OC4CN(C(=O)c5ccccc5)C4)n3)ccc2n1 |  |  |  |  | < 10000 nM | < 1000 nM
